Source: patent US20110160279A1, “METHODS FOR TREATMENT AND PREVENTION OF OTOTOXICITY BY siRNA” (BOARD OF TRUSTEES OF SOUTHERN ILLINOIS UNIVERSITY, priority 2007, published 2011)
Entries after “also recorded” stand apart in the source; their conditions may differ.

How the values were obtained:
[1] = system: NOX3 mRNA; experiment: Real time RT-PCR of NOX3 mRNA in UB/OC-1 cells; assay type: cell-based, mouse
Description: (§1) Immortalized organ of Corti cells derived from the mouse, UB/OC-1 cells, were obtained from Dr. Matthew Holley (Institute of Molecular Physiology, Addison Building, Western Bank, Sheffield, UK) and cultured in RPMI 1640 supplemented with 10% Fetalclone II (Hyclone, Logan, Utah) serum and penicillin-streptomycin. Cultures were grown in a 33° C. incubator in 10% CO2.
(§2) RNA was isolated by adding 1 ml TR1 reagent to 100 mg of cochlear or cortical tissue or 0.5 ml TR1 reagent (Sigma, St. Louis, Mo.) per well of each six well plate, according to the manufacturer's instructions.
(§3) Real time reverse transcriptase polymerase chain reaction (RT-PCR): One microgram of total RNA was converted to cDNA using iScript cDNA Synthesis Kit (Bio-Rad, Hercules, Calif.), and qRTPCR was performed as described by (Mukherjea et al, 2006). Gene specific primer pairs were used for the various reactions and mRNA expression levels were normalized to the levels of GAPDH house keeping gene.
(§4) The rodent set of primers and siRNA were based on the homologous sequences in the rat and mouse cDNA sequences. The primers were purchased from Sigma Genosys (St. Louis, Mo.). Purified siRNA duplexes were purchased from Qiagen (Valencia, Calif.).

[2] = system: gp91; experiment: Real time RT-PCR of gp91 mRNA in UB/OC-1 cells; assay type: cell-based, mouse
Description: as §1, §2, §3, §4

[3] = system: NADPH oxidase; settings: 10 μM, cochlear extracts, Lucigenin probe
Description: In order to determine whether noise exposure increased the activity of NADPH oxidase in the chinchilla cochlea, a major source of reactive oxygen species (ROS), the activity of NADPH oxidase in cytosolic preparations from the cochlea was examined. The activity of NAD(P)H oxidase was determined using 50 μg protein from cochlear extracts incubated with 100 μM β-NAD(P)H in a total volume of 200 μl of Hank's HEPES buffer (pH 7.4). The assay was initiated by the addition of 50 μM N,N′-dimethyl-9,9′-biacridinium dinitrate (Lucigenin) (Sigma, St. Louis, Mo.) to the incubation mixture. Samples were counted immediately using a table top luminometer (Berthold Detection Systems FB Luminometer, Zylux Corp., Maryville, Tenn.) with sampling time every 6 sec. Samples were counted over a period of 5 min and the fluorescence recorded over 2 min of stable readings were averaged for that samples. Samples were run in duplicate and the NAD(P)H oxidase activity was normalized to the protein concentrations in each sample.

[4] = system: TRPV1; assay type: cell-based, mouse
Description: as §1
To further study the role of ROS generated via cochlear NADPH oxidases in the induction of TRPV1 in the cochlea, in vitro experiments were performed using the organ of Corti transformed hair cell line, UB/OC1 (Rivolta et al., Proc. R. Sco. Lond., 265, 1595-1603, 1998). […] Immunolabeling was quantitated by fluorescence imaging using a confocal microscope. […] The immunofluorescence in these groups was reduced by 60 and 70%, respectively (FIG. 2B). […] The increases in expression of these genes were inhibited by DPI (10 μM), indicative of a role or NADPH oxidase activity in the induction of these subunits (FIG. 2G).

[5] = system: Rac1; experiment: Real time RT-PCR of Rac1 mRNA in UB/OC-1 cells; assay type: cell-based, mouse
Description: as §1, §2, §3, §4

[6] = system: UB-OC1 cells; experiment: Cell viability and morphology of UB-OC1 cultures; assay type: cell-based, mouse
[7] = system: UB-OC1 cells; experiment: Apoptosis by TUNEL staining in UB-OC1 cells; assay type: cell-based, mouse; settings: for apoptotic cells (TUNEL), of total cells: pretreated 30 min with TRPV1 inhibitor, then cisplatin 20 μM 24 h
Description: as §1
Frag-EL DNA fragmentation kit and H2DCFDA dye was purchased from (Calbiochem, San Diego, Calif.). TRPV1 antibody (Neuromics, Edina, Minn.) and secondary goat anti rabbit antibody was purchased from Santa Cruz Biotechnology (Santa Cruz, Calif.).
(§5) The increases in these proteins were attenuated by capsazepine (10 μM), implicating TRPV1 in this process.

[8] = system: UB/OC-1; experiment: Gentamicin-induced ROS generation by DCF2DA in UB/OC-1 cells; assay type: cell-based, mouse; settings: capsazepine 10 μM or ruthenium red 20 μM for 15 min, then gentamicin (20 μM) 30 min
Description: FIG. 5 depicts that inhibition of TRPV1 reduces generation of reactive oxygen species (ROS) by aminoglycosides. UB/OC-1 cultures were pretreated with vehicle (control), capsazepine (10 μM) or ruthenium red (20 μM) for 15 min prior to the administration of vehicle (control) or gentamicin (20 μM) for 30 min and the generation of reactive oxygen species was determined by the fluorescence of 2′,7′-dichlorodihydrofluorescein diacetate (DCF2DA) using confocal microscopy.
In this study, the mouse organ of Corti cell line (UB/OC-1) was used to examine the properties of aminoglycoside-induced ROS generation. For these experiments, cells were grown on coverslips to 60-80% confluency, then pretreated with vehicle (control and gentamicin groups), capsazepine (10 μM) or ruthenium red (20 μM) for 15 min. This was followed by vehicle (control) or gentamicin for 30 min. Cells were then loaded with 2′,7′-dichlorodihydrofluorescein diacetate (DCF2DA) and imaged by confocal microscopy.

[9] = system: p53; experiment: p53 protein expression in UB/OC-1 cells; assay type: cell-based, mouse
Description: as §5

[10] = system: Bax; experiment: Bax protein expression in UB/OC-1 cells; assay type: cell-based, mouse
Description: as §5

[11] = system: TRPV1 protein; experiment: Western blot of TRPV1 protein in UB-OC1 cells; assay type: cell-based, mouse; settings: cisplatin 2.5 μM
[12] = system: Rac1; experiment: Real time RT-PCR of Rac1 transcript in rat cochlea; assay type: in vivo; settings: cisplatin (data not shown)
Description: as §2, §3
(§6) The rodent set of primers and siRNA were based on the homologous sequences in the rat and mouse cDNA sequences. The primers were purchased from Sigma Genosys (St. Louis, Mo.). Purified siRNA duplexes were purchased from Qiagen (Valencia, Calif.). Primers were as follows: Rodent NOX3 (sense): 5′-[…]-3′ (SEQ ID NO: 9) (antisense): 5′-[…]-3′ (SEQ ID NO: 10), Rodent-GAPDH (sense): 5′-[…]-3′ (SEQ ID NO: 11) (antisense): 5′-[…]-3′ (SEQ ID NO: 12), Rodent TRPV1 (sense): 5′-[…]-3′ (SEQ ID NO: 13), (antisense): 5-[…]-3′ (SEQ ID NO: 14), Rodent Rac-1 (sense): 5′-[…]-3′ (SEQ ID NO: 15), (antisense): 5′-[…]-3′ (SEQ ID NO: 16), Rodent gp-91 (sense) 5′-[…]-3′ (SEQ ID NO: 17), (antisense): 5′-[…]-3′ (SEQ ID NO: 18), and Rat p22 (sense): 5′-[…]-3′ (SEQ ID NO: 19), (antisense) 5′-[…]-3′ (SEQ ID NO: 20) […]

[13] = system: p22; experiment: Real time RT-PCR of p22 transcript in rat cochlea; assay type: in vivo; settings: cisplatin (data not shown)
Description: as §2, §3, §6

[14] = system: TRPV1; experiment: TRPV1 immunoreactivity in rat cochlea sections; assay type: in vivo; settings: 72 h following cisplatin 13 mg/kg i.p.; confocal microscopy
Description: Cochleae perfused with 4% paraformaldehyde were processed for decalcification and sectioning as described in (Dunaway et al., 2003). TRPV1-1 antibody was diluted 1:100 and samples were incubated for 1 h at 37° C. incubator. Secondary antibody used was goat anti-rabbit IgG conjugated to horse radish peroxidase (Santa Cruz Biotechnology, Inc, Santa Cruz, Calif.) which was diluted 1:200. ABC staining system (Santa Cruz Biotechnology), which included a diaminobenzadine as a peroxidase substrate, was used for visualization of protein expression. Slides were imaged using Scion Imaging system (Frederick, Md.).
Rats were tested for hearing loss 72 h later using auditory brainstem evoked responses (ABRs). […] Cochleas obtained from these animals were decalcified, sectioned and processed for TRPV1 immunoreactivity using a polyclonal antibody (as described in Puntambekar et al., 2005). Visualization by confocal microscopy indicated TRPV1 immunoreactivity in the organ of Corti, supporting cells and spiral ganglion cells. […] The increases were 18±1 and 15±3 at 48 h and 72 h, respectively (FIG. 1C).

[15] = system: TRPV1 mRNA; experiment: Real time RT-PCR of TRPV1 mRNA in rat cochlea; assay type: in vivo; settings: rat cochlea
Description: (§7) Animal procedures and sample collection: Male Wistar rats were used for this study. Pre-ABR's were performed 2-3 days before round window application of siTRPV1 or PBS. […] The cochleas were dissected and used for the preparation of total RNA or total protein extracts, or perfused with 2.5% glutaraldehyde for morphological studies by Scanning Electron Microscopy (SEM's) or 4% paraformaldehyde for immunocytochemistry.
as §2, §3, §4

[16] = system: TRPV1 mRNA; experiment: Real time RT-PCR of TRPV1 mRNA in UB/OC-1 cells; assay type: cell-based, mouse; settings: cisplatin 2.5 μM, 24 h
Description: as §1, §2, §3, §4

[17] = system: TRPV1 protein; experiment: Western blot of TRPV1 protein in whole cochlear lysates; assay type: in vivo, rat; settings: 72 h following cisplatin
Source text: Cochleae were homogenized in ice-cold TRIS 50:10:100. The whole tissue lysate was then used for Western blotting. After transfer to nitrocellulose membrane TRPV1 protein was visualized by chemiluminesence detection (ECL, Amersham, Piscataway, N.J.).

[18] = system: outer hair cells; experiment: Outer hair cell loss by scanning electron microscopy; assay type: in vivo, rat; settings: cisplatin 16 mg/kg i.p., vehicle-pretreated cochlea, 3 days, N=3
Description: Immediately after completion of follow-up ABRs, deeply sedated rats were euthanized, their cochleae harvested and processed as described in (Kamimura et al, 1999). Sputter coated cochleae were then viewed and photographed with a Hitachi S-500 scanning electron microscope (Hitachi Ltd., Tokyo, Japan).
Hair cell counts were performed using a modified version of the method used by (Korver et al. 2002). Two representative areas of the basal turn and hook portion were photographed. In each area, inner or outer hair cells were counted in an area that was 10 pillar cell heads in length.
The results were shown, as the average survival percentage rates compared to the control group. Statistical analysis was performed using Student's t-test.
Five rats were administered either vehicle or TRPV1 siRNA (3 μl) by round window application. The rats served as their own controls since one cochlea was treated with vehicle and the other with siRNA.

[19] = system: NOX3 mRNA; experiment: Real time RT-PCR of NOX3 mRNA in rat cochlea; assay type: in vivo; settings: cisplatin, 72 hrs
Description: as §7, §2, §3, §4

[20] = system: UB-OC1 cells; experiment: Cisplatin-induced ROS generation by DCF2DA fluorescence in UB-OC1 cells; assay type: cell-based, mouse; settings: cisplatin 2.5 μM, 30 minute
[21] = system: gp91; experiment: Real time RT-PCR of gp91 transcript in rat cochlea; assay type: in vivo; settings: cisplatin (data not shown)
Description: as §2, §3, §6

[22] = system: UB/OC-1 cells; experiment: Intracellular Ca2+ with Fura4-AM in UB/OC-1 cells; assay type: cell-based, mouse; settings: cisplatin
Description: as §5

[23] = pretreatment (capsazepine 10 μM; BAPTA-AM 30 min) before cisplatin

## c1ccc2c(c1)[I+]c1ccccc1-2 [DPI, diphenyleneiodonium]
[1]; DPI 10 μM
  effect on cisplatin-induced increase in NOX3 expression: inhibited
[2]; DPI 10 μM
  effect on cisplatin-induced increase in gp91 expression: inhibited
[3]
  effect on NADPH oxidase activity: blockade of enzyme activity
[4]; pretreatment with 100 μM AEBSF or 10 μM DPI before cisplatin 2.5 μM
  reduction of TRPV1 immunofluorescence: 70%
[5]; DPI 10 μM
  effect on cisplatin-induced increase in Rac1 expression: inhibited
[6]
  effect on cell viability over a 24 h period: did not significantly affect cell viability

## Oc1cc2c(cc1O)CN(C(=S)NCCc1ccc(Cl)cc1)CCC2 [capsazepine]
[7]
  effect on cell apoptosis compared to vehicle-treated control: Neither capsazepine nor ruthenium red alone had any significant effect
  apoptotic cells (TUNEL), of total cells: ~7%
[8]
  effect on ROS generation of the gentamicin group: suppressed
[9]; [23]
  effect on cisplatin-induced increase in p53: attenuated
[10]; [23]
  effect on cisplatin-induced increase in Bax: attenuated

## N.N.[Cl][Pt][Cl] [cisplatin]
[1]; cisplatin 2.5 μM
  increase in NOX3 mRNA: 2.7 fold
[11]
  increase in TRPV1 protein by Western blotting: 90%±10%
[7]; cisplatin 20 μM, 24 h
  apoptotic cells (TUNEL): ~80%
[12]
  increase in Rac1 expression: 478±85 fold
[2]; cisplatin 2.5 μM
  increase in gp91 mRNA: 2.8 fold
[13]
  increase in p22 expression: 8±1 fold
[14]
  elevation of TRPV1 immunoreactivity in hair cells and spiral ganglion cells: 2-3 fold
[15]; 24 h following cisplatin
  increase in TRPV1 transcripts: 15±1 fold
[15]; 48 h following cisplatin
  increase in TRPV1 transcripts: 18±1
[15]; 72 h following cisplatin
  increase in TRPV1 transcripts: 15±3
[15]; lipoic acid experiment (FIG. 1D), 72 hrs
  level of induction of TRPV1 by cisplatin: 5.5±1.5 fold
[16]
  change in TRPV1 mRNA: significant increase; also recorded: Three fold increase
[9]; cisplatin, 24 hr
  p53 protein: increases
[17]
  TRPV1 protein (~95 kDa band) in whole cochlear lysates: increased TRPV1 protein
[4]; cisplatin 2.5 μM, 24 h
  induction in TRPV1 immunoreactivity over control vehicle treated cells: 71±29%
[10]; cisplatin, 24 hr
  Bax protein: increases
[18]
  percentage of outer hair cell loss, base: 42±9 percentage
  percentage of outer hair cell loss, hook: 72±14 percentage
  percentage of outer hair cell loss, middle turn: 22±2.7 percentage
[19]
  change in NOX3 transcript in the cochlea: small but statistically significant increase
[20]
  ROS generation by DCF2DA fluorescence: robust increase
[5]; cisplatin 2.5 μM
  increase in Rac1 mRNA: 2.1 fold
[21]
  increase in gp91 expression: 1000±102 fold
[22]
  intracellular Ca2+: increased intracellular Ca2+

## N.N.N.N.N.N.N.N.N.N.N.N.N.N.[Cl-].[Cl-].[Cl-].[Cl-].[Cl-].[Cl-].[O-2].[O-2].[Ru+3].[Ru+3].[Ru+4] [ruthenium red]
[7]
  effect on cell apoptosis compared to vehicle-treated control: Neither capsazepine nor ruthenium red alone had any significant effect
  apoptotic cells (TUNEL), of total cells: ~7%
[8]
  effect on ROS generation of the gentamicin group: suppressed
